{"source": "patent US20130236568A1", "about": "“PHOSPHAPLATINS HAVING ANTI-ANGIOGENIC, ANTI-METASTATIC, AND PRO-APOPTOTIC PROPERTIES AND USES THEREOF” (Ohio University, priority 2011, published 2013)", "key": {"[1]": {"tested_on": "yeast deletion collection", "assay": "Genome-wide fitness assay in yeast (pooled deletion strains)", "format": "cell-based", "settings": "for Sensitivity of DNA damage/repair genes (NER, HRR, PRR): phosphaplatins at 200 μM final concentration", "source_text": "The around 6000 strains in the yeast deletion collection can be studied in a single culture by using a microarray to detect the 20 bp DNA “barcodes” or “tags” contained in each strain. Barcode intensities are compared across time-points or across conditions to analyze the relative fitness of each strain. This development of the pooled fitness assay has greatly facilitated the functional annotation of the yeast genome by making genome-wide gene-deletion studies faster and easier, and has led to the development of high throughput methods for studying drug action in yeast. Pooled screens can be used for identifying gene functions, measuring the functional relatedness of gene pairs in order to group genes into pathways, identifying drug targets, and determining a drug's mechanism of action. This process involves five main steps: preparing aliquots of pooled cells, pooled growth, isolation of genomic DNA and PCR amplification of the barcodes, array hybridization (or next generation sequencing), and data analysis.\nThe pooled fitness assay involves five main steps (FIG. 3). First, the deletion collection is grown on solid media in arrayed format and the resulting cells are pooled and frozen to make cell aliquots that will be used for starting growth experiments. Cells are then grown in the desired conditions, typically for 5 to 20 generations. The barcodes from the resulting cell samples are prepared for hybridization by isolation of the genomic DNA and PCR amplification of the barcodes. The barcodes are amplified in two reactions to prevent crosstalk between the uptag and downtag primers. The resulting PCR products are then hybridized to tag arrays with one array needed per cell sample. Data is then analyzed to determine differences in strain representation between pairs of samples.\nTo analyze the genome wide effects of pyrodach-2 and -4, we screened 2 collections of strains, 1200 essential genes as heterozygote deletion mutants (reducing functional gene dose from 2 to 1) and 4800 non-essential genes as complete deletions (reducing functional gene dose from 2 to 0). Both compounds were screened at the highest dose possible (200 μM final concentration) to increase the likelihood of finding compound-specific sensitive strains.\nFitness profiling of pooled deletion strains involves […] main steps: • 1. Strains are first pooled at approximately equal abundance. • 2. The pool is grown competitively in the condition of choice and a control condition. If a gene is sensitive to the treatment condition, the strain carrying this deletion will grow more slowly and become under-represented relative to the control culture (purple strain). Resistant strains will grow faster and become over-represented (not shown). • 3. Genomic DNA is isolated from cells harvested at the end of pooled growth, and barcodes are amplified from the genomic DNA with universal primers. • 4. PCR products are then hybridized to an array that detects the tag sequences, giving tag intensities for the two samples. • 5. The treatment and control sample are then compared to determine the relative fitness of each strain. Note that only the purple strain is described as sensitive to the condition. While the red strain grows more slowly than the blue strain in the treatment, this growth difference in not of interest because it matches that seen in the control."}, "[2]": {"tested_on": "VEGFR2 gene", "assay": "Quantitative real-time PCR, VEGFR2 gene expression in A2780/C30 cells", "format": "cell-based, human", "settings": "A2780/C30 (cisplatin-resistant); positive = manifold increase, negative = relative decrease vs untreated cells; cisplatin 7 μM, pyrodach-4 180 μM", "experimental": "(§1) Evaluations of selected gene expressions in Human Umbilical Vein Endothelial Cells (HUVEC) and Human Ovarian Cancer Cells by quantitative reverse transcriptase polymerase chain reaction (PCR)\n(§2) Quantitative real-time PCR experiments were performed to estimate the expression of a selection of targeted genes. HUVEC cells (Lonza Walkersville, Frederick, Md.) were cultured on 0.1% gelatin-coated petri dishes by following standard protocols recommended by the vendor in a humidified incubator by maintaining 5% CO2 at 37° C. Human epithelial ovarian cancer cells (A2780) and cisplatin-resistant cells (A2780/C30) were cultured in RPMI 1640 with or without cisplatin (7 μM) and pyrodach-4 (180 μM) for 0, 3, 12 and 24 hours. […] HUVECs were treated with or without cisplatin (7 μM) or pyrodach-4 (90 or 180 μM) for various durations ranging from 1 hr. to 6 hrs.\n(§3) Both treated and untreated cancer cells were maintained in RPMI 1640 medium with 10% fetal bovine serum, 2 μmol L-glutamine, 100 units/mL penicillin-streptomycin and 0.25 units/mL insulin solution, at 37° C. with 5% CO2. RNA was isolated from both the treated and untreated cells. […] The quantity and purity of RNA were determined by UV spectroscopy (NanoDrop 2000 Thermo Scientific, Wilmington, Del.). A minimum absorbance ratio index (ratio of the absorbance measured at 260 nm over that at 280 nm) of 1.9 was used as an acceptable purity. […] The target gene was labeled with a blue dye (FAM, absorbance: 494 nm, emission: 518 nm) while the reference gene was tagged with a green dye (VIC, absorbance: 538 nm, emission: 554 nm). The cDNA concentrations were selected such that the threshold cycle (Ct) values for the target genes were between 17 and 32, most sensitive for the fluorescence detection by ABI StepOnePlus™ instrument used for the measurements.\n(§4) The threshold cycle number (Ct), the point at which the fluorescence of the qPCR reaction just exceeds the threshold fluorescence of the detection system, was determined. […]"}, "[3]": {"tested_on": "A2780/C30 cells", "assay": "Cell death detection assay with ELISA, A2780/C30 cells", "format": "cell-based, human", "settings": "7 μM cisplatin or 180 μM D4", "procedure": "In these experiments, ovarian cancer cells were treated with pyrodach-4 in the presence and absence of inhibitors PFT-α (an inhibitor p53) and LY29400 (an inhibitor of PI3K).\nThe different treatment groups from left to right are: control, 7 μM cisplatin, Con+PFT-α, 180 μM D4, 180 μM D4+PFT-α, 180 μM D4+LY294002. Apoptosis was quantified using the Cell Death Detection ELISA from Roche.\nA2780 and A2780/C30 cells were grown in monolayers, trypsinized and suspended in supplemented RPMI 1640 media as described in Example 5. All the treatments on the Fc/A2780 and Fc/A2780/C30 cell samples were carried out in triplicate. The ELISA was performed according to the manufacturer's instructions. Briefly, 50,000 cells were plated for each treatment and the cells were allowed to adhere for 4-6 hours. Cells were then either incubated with media alone (untreated sample) or with pyrodach-4 or cisplatin in the concentrations indicated above. DNA of the treated and untreated cells was assayed for nucleosomal DNA using the ELISA kit (purchased from Roche Diagnostics, Mannheim, Germany). The cells were lysed for 30 minutes using the lysis buffer. After centrifuging, 10% (v/v) supernanant was incubated with anti-histone-biotin and anti-DNA-peroxidase. After two hour incubation, the pellets were washed three times and incubated with the substrate solution. The absorbances were measured at 405 and 490 nm for each treatment type using SPECTRA Max M2 multichannel fluorescence plate reader (Molecular Devices, Sunnyvale, Calif.). The absorbances of the treated samples were normalized to the substrate solution."}, "[4]": {"tested_on": "VEGFR2 gene", "assay": "Quantitative real-time PCR, VEGFR2 gene expression in A2780 cells", "format": "cell-based, human", "settings": "A2780 (cisplatin-sensitive); positive = manifold increase, negative = relative decrease vs untreated cells; cisplatin 7 μM, pyrodach-4 180 μM", "experimental": "as §1, §2, §3, §4"}, "[5]": {"settings": "yeast deletion strains, 200 μM final concentration"}}, "data": [{"smiles": "NC1CCCCC1N.O=P([O-])(O)OP(=O)([O-])O.[Pt+2]", "note": "(racemic) [pyrodach-2, trans-(±)-1,2-cyclohexanediamine(pyrophosphato) platinum(II)]", "values": [{"measurement": "Tolerability by the yeast cell (few sensitive strains)", "setting": "[1]; highest dose possible, 200 μM final concentration", "result": "well tolerated by the cell"}, {"measurement": "Compound-specific sensitive strain", "setting": "[1]; [5]", "result": "induced sensitivity in the strain avo2"}, {"measurement": "Functions enriched among sensitive strains", "setting": "[1]; [5]", "result": "1) iron and copper transport and 2) metal-regulated transcription factors"}, {"measurement": "Sensitivity of DNA damage/repair genes (NER, HRR, PRR)", "setting": "[1]; yeast deletion strains", "result": "not a single gene involved in DNA repair or other DNA metabolic processes showed any sensitivity as a mutant"}]}, {"smiles": "N.N.[Cl][Pt][Cl]", "note": "[Cisplatin, cisplatin, reference compound]", "values": [{"measurement": "Normalized expression of VEGFR2 gene", "setting": "[2]", "result": 2.0}, {"measurement": "Apoptotic cell death (ELISA absorbance)", "setting": "[3]", "result": "insignificant increase in absorbance"}, {"measurement": "Normalized expression of VEGFR2 gene", "setting": "[4]", "result": 2.5}, {"measurement": "Sensitivity of DNA damage/repair genes (NER, HRR, PRR)", "setting": "[1]; yeast deletion strains", "result": "induced expression of those genes related to the DNA response"}]}]}
